Measurements from the supplement of paper PMC11061612.

How the values were obtained:
Assay in all cases: Bliss excess, mean over the matrix (fraction); higher = more synergy
A498 (Kidney Carcinoma) = tested on: A498 (Kidney Carcinoma)
Method in brief: (§1)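 After 24 hours at 37°C and 5% CO2 in 1536-well plates, cells in DMEM/F12 or RPMI plus 10% FBS received two-drug dose matrices for 72 hours. Viability came from CellTiter-Glo 2.0 luminescence and was scaled as inhibition, anchored at 0 by vehicle wells and at 1 by blank wells. Combination Emax is taken as the second-highest inhibition in the matrix, and Bliss excess as the observed combination effect less EA + EB − EA·EB, with EA and EB the single-agent effects.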

ARH-77 (Non-Cancerous) = tested on: ARH-77 (Non-Cancerous)
Method in brief: as §1

[1] = tested on: BICR22 (Oral Cavity Carcinoma)
Method in brief: as §1

[2] = tested on: CAL-29 (Bladder Carcinoma)
Method in brief: as §1

[3] = tested on: CAPAN-2 (Pancreatic Carcinoma)
Method in brief: as §1

[4] = tested on: COLO-320-HSR (Colorectal Carcinoma)
Method in brief: as §1

[5] = tested on: COLO-824 (Breast Carcinoma)
Method in brief: as §1

GI-ME-N (Neuroblastoma) = tested on: GI-ME-N (Neuroblastoma)
Method in brief: as §1

IGR-37 (Melanoma) = tested on: IGR-37 (Melanoma)
Method in brief: as §1

[6] = tested on: KARPAS-422 (B-Cell Non-Hodgkin's Lymphoma)
Method in brief: as §1

LN-405 (Glioblastoma) = tested on: LN-405 (Glioblastoma)
Method in brief: as §1

[7] = tested on: NCI-H1650 (Lung Adenocarcinoma)
Method in brief: as §1

[8] = tested on: NCI-H2066 (Squamous Cell Lung Carcinoma)
Method in brief: as §1

[9] = tested on: NCI-H64 (Small Cell Lung Carcinoma)
Method in brief: as §1

[10] = tested on: ONS-76 (Other Solid Carcinomas)
Method in brief: as §1

[11] = tested on: OS-RC-2 (Kidney Carcinoma)
Method in brief: as §1

PA-1 (Ovarian Carcinoma) = tested on: PA-1 (Ovarian Carcinoma)
Method in brief: as §1

[12] = tested on: PANC-10-05 (Pancreatic Carcinoma)
Method in brief: as §1

[13] = tested on: SISO (Cervical Carcinoma)
Method in brief: as §1

[14] = tested on: SK-MES-1 (Squamous Cell Lung Carcinoma)
Method in brief: as §1

## COc1nnc2ccc(N3CCC(c4ccc(OCCN5CCN(C)C(=O)[C@H]5C)cc4)CC3)nn12 [AZD5153] + CC1(C)CCC(CN2CCN(c3ccc(C(=O)NS(=O)(=O)c4ccc(NCC5CCOCC5)c([N+](=O)[O-])c4)c(Oc4cnc5[nH]ccc5c4)c3)CC2)=C(c2ccc(Cl)cc2)C1 [Venetoclax] (first compound max 1 µM, 7x7, partner max 1 µM)
A498 (Kidney Carcinoma)
  Bliss excess: -0.0895
ARH-77 (Non-Cancerous)
  Bliss excess: -0.0033
[1]
  Bliss excess: -0.0613
[2]
  Bliss excess: -0.103
[3]
  Bliss excess: -0.0149
[4]
  Bliss excess: -0.0657
[5]
  Bliss excess: -0.0176
GI-ME-N (Neuroblastoma)
  Bliss excess: -0.0955
IGR-37 (Melanoma)
  Bliss excess: -0.0171
[6]
  Bliss excess: -0.032
LN-405 (Glioblastoma)
  Bliss excess: -0.0861
[7]
  Bliss excess: -0.0349
[8]
  Bliss excess: -0.0919
[9]
  Bliss excess: -0.0455
[10]
  Bliss excess: -0.0428
[11]
  Bliss excess: -0.0584
PA-1 (Ovarian Carcinoma)
  Bliss excess: -0.077
[12]
  Bliss excess: -0.119
[13]
  Bliss excess: -0.0335
[14]
  Bliss excess: -0.0349

## COc1nnc2ccc(N3CCC(c4ccc(OCCN5CCN(C)C(=O)[C@H]5C)cc4)CC3)nn12 [AZD5153] + CCN(CCO)CCCOc1ccc2c(Nc3cc(CC(=O)Nc4cccc(F)c4)[nH]n3)ncnc2c1 [AZD2811] (first compound max 1 µM, 7x7, partner max 1 µM)
A498 (Kidney Carcinoma)
  Bliss excess: -0.0453
ARH-77 (Non-Cancerous)
  Bliss excess: -0.0471
[1]
  Bliss excess: -0.118
[2]
  Bliss excess: 0.0084
[3]
  Bliss excess: -0.0286
[4]
  Bliss excess: -0.0417
[5]
  Bliss excess: -0.0422
GI-ME-N (Neuroblastoma)
  Bliss excess: 0.0022
IGR-37 (Melanoma)
  Bliss excess: 0.0031
[6]
  Bliss excess: -0.0472
LN-405 (Glioblastoma)
  Bliss excess: -0.0761
[7]
  Bliss excess: -0.0868
[8]
  Bliss excess: -0.0352
[9]
  Bliss excess: 0.0609
[10]
  Bliss excess: -0.0124
[11]
  Bliss excess: -0.0473
PA-1 (Ovarian Carcinoma)
  Bliss excess: 0.032
[12]
  Bliss excess: -0.0713
[13]
  Bliss excess: 0.0112
[14]
  Bliss excess: -0.0546

## COc1nnc2ccc(N3CCC(c4ccc(OCCN5CCN(C)C(=O)[C@H]5C)cc4)CC3)nn12 [AZD5153] + C[C@@H]1COCCN1C2=NC(=NC(=C2)C3(CC3)[S@](=N)(=O)C)C4=C5C=CNC5=NC=C4 [AZD6738] (first compound max 1 µM, 7x7, partner max 10 µM)
A498 (Kidney Carcinoma)
  Bliss excess: -0.0563
ARH-77 (Non-Cancerous)
  Bliss excess: -0.0293
[1]
  Bliss excess: -0.116
[2]
  Bliss excess: 0.0219
[3]
  Bliss excess: 0.0047
[4]
  Bliss excess: 0.0292
[5]
  Bliss excess: 0.0541
GI-ME-N (Neuroblastoma)
  Bliss excess: 0.0858
IGR-37 (Melanoma)
  Bliss excess: -0.0149
[6]
  Bliss excess: -0.0759
LN-405 (Glioblastoma)
  Bliss excess: -0.0235
[7]
  Bliss excess: 0.0238
[8]
  Bliss excess: -0.0454
[9]
  Bliss excess: 0.0357
[10]
  Bliss excess: -0.0698
[11]
  Bliss excess: 0.0699
PA-1 (Ovarian Carcinoma)
  Bliss excess: -0.0502
[12]
  Bliss excess: -0.0928
[13]
  Bliss excess: 0.008
[14]
  Bliss excess: 0.0093

## COc1nnc2ccc(N3CCC(c4ccc(OCCN5CCN(C)C(=O)[C@H]5C)cc4)CC3)nn12 [AZD5153] + Cc1c2c(nn1C)CSCc1cc(n(C)n1)CSc1cc(c3ccccc3c1)OCCCc1c(C(=O)O)n(C)c3c-2c(Cl)ccc13 [AZD5991] (first compound max 1 µM, 7x7, partner max 1 µM)
A498 (Kidney Carcinoma)
  Bliss excess: -0.0226
ARH-77 (Non-Cancerous)
  Bliss excess: -0.04
[1]
  Bliss excess: -0.0013
[2]
  Bliss excess: -0.0162
[3]
  Bliss excess: -0.0078
[4]
  Bliss excess: -0.112
[5]
  Bliss excess: -0.0584
GI-ME-N (Neuroblastoma)
  Bliss excess: -0.0142
IGR-37 (Melanoma)
  Bliss excess: 0.0608
[6]
  Bliss excess: -0.0432
LN-405 (Glioblastoma)
  Bliss excess: -0.0084
[7]
  Bliss excess: -0.0082
[8]
  Bliss excess: -0.0569
[9]
  Bliss excess: -0.0074
[10]
  Bliss excess: -0.0081
[11]
  Bliss excess: -0.0106
PA-1 (Ovarian Carcinoma)
  Bliss excess: 0.0109
[12]
  Bliss excess: -0.0759
[13]
  Bliss excess: 0.0698
[14]
  Bliss excess: -0.0084
